From patent publication US20240053326A1, “TESTING COLON CANCER DRUGS FOR IMMUNOMODULATORY EFFECTS” (BROWN UNIVERSITY, priority 2022, published 2024)

Tested on: HCT-116, HT-29, and KM12C colon cancer cell lines
Experiment: Cytokinome (cytokine, chemokine, growth factor) profiling of cell culture supernatant after small-molecule treatment, Luminex 200
Assay type: cell-based, human
Conditions: for decreases in VEGF: 48 h treatment at IC-10 to IC-90, slope of linear regression, count of drug/cell line groups (HCT-116, HT-29, KM12C) with analyte among top five most down-regulated
Protocol: We designed a high-throughput custom multiplex cytokine, chemokine, and growth factor profiling panel based on both pro- and anti-inflammatory markers, as well as cytokines and chemokines involved in the recruitment and activation of immune cells such as natural killer (NK) and T cells. Cell lines were treated with the drug panel and cell culture supernatants were analyzed using Luminex 200 technology (FIG. 2). Cell lines were treated at differing concentrations (IC-10, IC-30, IC-50, IC-70, and IC-90) to determine dose-response effects for each small-molecule. It is important to emphasize that the panel was designed to analyze soluble factors that are secreted or shed by tumor cells post-treatment with drug.
Cells were plated at 3.5×10^4 cells in a 48 well plate (Thermo Fisher Scientific, Waltham, MA, USA) in complete medium and incubated at 37° C. with 5% CO2. At 24 hours after plating, almost all the tumor cells were adherent to the bottom of the flask and the complete medium was replaced with drug-containing medium. Subsequently, the culture supernatants were collected after 48 hours of incubation and were frozen at −80° C. until the measurement of cytokines was performed. The day of analysis, samples were thawed and centrifuged to remove cellular debris.
An R&D systems Human Premixed Multi-Analyte Kit (R&D Systems, Inc., Minneapolis, MN) was run on a Luminex 200 Instrument (LX200-XPON-RUO, Luminex Corporation, Austin, TX) according to the manufacturer's instructions. Cell culture supernatant levels of TNF-alpha, IL-6, IL-8/CXCL8, Ferritin, IFN-beta, IL-10, CCL2/JE/MCP-1, VEGF, CXCL13/BLC/BCA-1, IFN-gamma, CCL20/MIP-3 alpha, CCL3/MIP-1 alpha, CCL22/MDC, CCL4/MIP-1 beta, IL-4, IL-17/IL-17a, TRAIL R2/TNFRSF10B, GM-CSF, CXCL5/ENA-78, CXCL9/MIG, G-CSF, CXCL11/I-TAC, Granzyme B, CCL5/RANTES, Prolactin, IFN-alpha, CXCL14/BRAK, IL-12/IL-23 p40, CXCL10/IP-10/CRG2, CCL7/MCP-3/MARC, IL-7, CCL8/MCP-2, TRANCE/TNFSF11/RANK L, IL-15, TRAIL R3/TNFRSF10C, CCL11/Eotaxin, IL-18/IL-1F4, TRAIL/TNFSF10, IL-21, and C-Reactive Protein/CRP were measured.
A quantitative analysis with 6 standards and a minimum of 50 counts per bead region was used with the Luminex to generate analyte values reported as picograms/milliliter (pg/mL). Cytokine concentrations less than the lower limit of detection for each particular cytokine were recoded as zero. Cytokines without detectable expression levels were removed from further analysis of each cell line. Each drug was tested at different inhibitory concentrations (IC-10, IC-30, IC-50, IC-70, and IC-90), and these varying concentrations were used to measure a dose-response effect on cytokine expression. Cytokine dose-response effect was modeled by simple linear regression for each drug. The slopes of the linear regressions were compared. Data analysis and visualization were generated using R (R Development Core Team, 2020).

[1] = 48 h, IC-10 to IC-90, regression slope, count of drug/cell line groups, top five most down-regulated
[2] = 48 h, IC-10 to IC-90, regression slope, count of drug/cell line groups, top five most up-regulated

SMILES | decreases in CCL3/MIP-1 alpha [1] | decreases in CXCL9/MIG [1] | increases in CXCL14/BRAK [2] | increases in IL-8/CXCL8 [2] | increases in sTRAIL-R3 [2] | decreases in VEGF | decreases in CXCL13/BLC/BCA-1 [1] | increases in Prolactin [2] | decreases in IL-8/CXCL8 [1] | increases in CCL5/RANTES [2] | increases in IL-18/IL-1F4 [2] | decreases in CXCL5/ENA-78 [1] | decreases in CXCL14/BRAK [1] | increases in CXCL5/ENA-78 [2]
Cn1cc(C2=C(c3coc4ccc(F)cc34)C(=O)NC2=O)c2cc3c(cc21)OCO3 [9-ING-41] | 2 out of 3 | 3 out of 3 | 3 out of 3 | 2 out of 3 | 2 out of 3 | 3 out of 3 |  |  |  |  |  |  |  | 
C[C@@H](Oc1cc(-c2cnn(C3CCNCC3)c2)cnc1N)c1c(Cl)ccc(F)c1Cl [Crizotinib] |  | 2 out of 3 | 2 out of 3 | 2 out of 3 |  | 3 out of 3 | 2 out of 3 | 2 out of 3 |  |  |  |  |  | 
O=C(Nc1cnn2ccc(N3CCC[C@@H]3c3cc(F)ccc3F)nc12)N1CC[C@H](O)C1 [Larotrectinib] | 2 out of 3 | 3 out of 3 |  |  |  | 3 out of 3 |  | 2 out of 3 | 2 out of 3 | 2 out of 3 | 2 out of 3 |  |  | 
CNC(=O)c1cc(Oc2ccc(NC(=O)Nc3ccc(Cl)c(C(F)(F)F)c3)c(F)c2)ccn1 [Regorafenib] | 2 out of 3 | 3 out of 3 | 2 out of 3 |  |  | 3 out of 3 |  | 2 out of 3 | 3 out of 3 |  |  | 2 out of 3 |  | 
COc1ccc(CN2C3CC2CN(c2ccc(-c4cc(OCC(C)(C)O)cn5ncc(C#N)c45)cn2)C3)cn1 [Selpercatinib] | 2 out of 3 |  |  | 2 out of 3 |  | 3 out of 3 |  | 2 out of 3 |  |  |  |  | 2 out of 3 | 3 out of 3
